Results from patent publication US11649231B2, “Compound as mTOR inhibitor and use thereof” (MEDICINAL BIOCONVERGENCE RESEARCH CENTER, priority 2018, dated 2023).

These compounds were tested on mTORC1 (assay: mTORC1 activity inhibitory effect at 20 μM, phospho-p70 S6 Kinase Western blot in SW620 cells). Conditions: leucine-free 1 h 30 min, then leucine 15 min, vs DMSO control.
Protocol: In order to evaluate the inhibitory effect of the compounds according to the present invention on the activity of mTORC1, an experiment was performed in the following manner.

SMILES | mTORC1 inhibitory effect (%)
Cn1cc(/C=C2\SC(=S)N(Cc3ccco3)C2=O)cn1 [Example 1-2, (5Z)-3-(2-furylmethyl)-5-[(1-methylpyrazol-4-yl)methylene]-2-thioxo-thiazolidin-4-one] | 74.4 ± 0.2%
CN1C(=O)/C(=C/c2cnn(-c3ccccc3)c2)SC1=S [Example 1-3, (5Z)-3-methyl-5-[(1-phenylpyrazol-4-yl)methylene]-2-thioxo-thiazolidin-4-one] | 53.97 ± 1.49%
CCN1C(=O)/C(=C/c2cnn(-c3ccccc3)c2)SC1=S [Example 1-4, (5Z)-3-ethyl-5-[(1-phenylpyrazol-4-yl)methylene]-2-thioxo-thiazolidin-4-one] | 68.36 ± 1.69%
C=CCN1C(=O)/C(=C/c2cnn(-c3ccccc3)c2)SC1=S [Example 1-5, (5Z)-3-allyl-5-[(1-phenylpyrazol-4-yl)methylene]-2-thioxo-thiazolidin-4-one] | 45.82 ± 3.59%
CN1C(=O)/C(=C/c2cnn(-c3ccccc3Cl)c2)SC1=S [Example 1-10, (5Z)-5-[[1-(2-chlorophenyl)pyrazol-4-yl]methylene]-3-methyl-2-thioxo-thiazolidin-4-one] | 50.52 ± 3.69%
CCN1C(=O)/C(=C/c2cnn(-c3ccccc3Cl)c2)SC1=S [Example 1-11, (5Z)-5-[[1-(2-chlorophenyl)pyrazol-4-yl]methylene]-3-ethyl-2-thioxo-thiazolidin-4-one] | 67.22 ± 1.41%
C=CCN1C(=O)/C(=C/c2cnn(-c3ccccc3Cl)c2)SC1=S [Example 1-12, (5Z)-3-allyl-5-[[1-(2-chlorophenyl)pyrazol-4-yl]methylene]-2-thioxo-thiazolidin-4-one] | 70.93 ± 2.39%
CN1C(=O)/C(=C/c2cnn(-c3cccc(Cl)c3)c2)SC1=S [Example 1-14, (5Z)-5-[[1-(3-chlorophenyl)pyrazol-4-yl]methylene]-3-methyl-2-thioxo-thiazolidin-4-one] | 46.72 ± 14.22%
CCN1C(=O)/C(=C/c2cnn(-c3cccc(Cl)c3)c2)SC1=S [Example 1-15, (5Z)-5-[[1-(3-chlorophenyl)pyrazol-4-yl]methylene]-3-ethyl-2-thioxo-thiazolidin-4-one] | 72.46 ± 1.79%
C=CCN1C(=O)/C(=C/c2cnn(-c3cccc(Cl)c3)c2)SC1=S [Example 1-16, (5Z)-3-allyl-5-[[1-(3-chlorophenyl)pyrazol-4-yl]methylene]-2-thioxo-thiazolidin-4-one] | 3.74 ± 10.43%
CN1C(=O)/C(=C/c2cnn(-c3ccc(Cl)cc3)c2)SC1=S [Example 1-18, (5Z)-5-[[1-(4-chlorophenyl)pyrazol-4-yl]methylene]-3-methyl-2-thioxo-thiazolidin-4-one] | 50.17 ± 12.77%
CCN1C(=O)/C(=C/c2cnn(-c3ccc(Cl)cc3)c2)SC1=S [Example 1-19, (5Z)-5-[[1-(4-chlorophenyl)pyrazol-4-yl]methylene]-3-ethyl-2-thioxo-thiazolidin-4-one] | 54.17 ± 8.55%
Cc1ccc(-n2cc(/C=C3\SC(=S)NC3=O)cn2)cc1 [Example 1-20, (5Z)-5-[[1-(p-tolyl)pyrazol-4-yl]methylene]-2-thioxo-thiazolidin-4-one] | 83.30 ± 1.76%
Cc1ccc(-n2cc(/C=C3\SC(=S)N(C)C3=O)cn2)cc1 [Example 1-21, (5Z)-3-methyl-5-[[1-(p-tolyl)pyrazol-4-yl]methylene]-2-thioxo-thiazolidin-4-one] | 71.18 ± 5.04%
CCN1C(=O)/C(=C/c2cnn(-c3ccc(C)cc3)c2)SC1=S [Example 1-22, (5Z)-3-ethyl-5-[[1-(p-tolyl)pyrazol-4-yl]methylene]-2-thioxo-thiazolidin-4-one] | 77.21 ± 0.84%
C=CCN1C(=O)/C(=C/c2cnn(-c3ccc(C)cc3)c2)SC1=S [Example 1-23, (5Z)-3-allyl-5-[[1-(p-tolyl)pyrazol-4-yl]methylene]-2-thioxo-thiazolidin-4-one] | 15.74 ± 10.22%
CCN1C(=O)/C(=C/c2cnn(-c3ccc(C(C)C)cc3)c2)SC1=S [Example 1-25, (5Z)-3-ethyl-5-[[1-(4-isopropylphenyl)pyrazol-4-yl]methylene]-2-thioxo-thiazolidin-4-one] | 36.86 ± 3.47%
CCCCc1ccc(-n2cc(/C=C3\SC(=S)NC3=O)cn2)cc1 [Example 1-26, (5Z)-5-[[1-(4-butylphenyl)pyrazol-4-yl]methylene]-2-thioxo-thiazolidin-4-one] | 59.73 ± 3.55%
CCCCc1ccc(-n2cc(/C=C3\SC(=S)N(CC)C3=O)cn2)cc1 [Example 1-27, (5Z)-5-[[1-(4-butylphenyl)pyrazol-4-yl]methylene]-3-ethyl-2-thioxo-thiazolidin-4-one] | 51.70 ± 7.12%
Cc1ccc(-n2cc(/C=C3\SC(=S)NC3=O)cn2)cc1C [Example 1-28, (5Z)-5-[[1-(3,4-dimethylphenyl)pyrazol-4-yl]methylene]-2-thioxo-thiazolidin-4-one] | 47.13 ± 3.15%

SMILES | mTORC1 inhibitory effect (%)
CCN1C(=O)/C(=C/c2cnn(-c3ccc(C)c(C)c3)c2)SC1=S [Example 1-29, (5Z)-5-[[1-(3,4-dimethylphenyl)pyrazol-4-yl]methylene]-3-ethyl-2-thioxo-thiazolidin-4-one] | 4.02 ± 6.64%
O=C1NC(=S)S/C1=C\c1cnn(-c2ccc3ccccc3c2)c1 [Example 1-31, (5Z)-5-[[1-(2-naphthyl)pyrazol-4-yl]methylene]-2-thioxo-thiazolidin-4-one] | 40.20 ± 1.02%
CCN1C(=O)/C(=C/c2cnn(-c3ccc4ccccc4c3)c2)SC1=S [Example 1-32, (5Z)-3-ethyl-5-[[1-(2-naphthyl)pyrazol-4-yl]methylene]-2-thioxo-thiazolidin-4-one] | 75.04 ± 5.32%
O=C1/C(=C/c2cnn(-c3ccccn3)c2)SC(=S)N1CCO [Example 1-34, (5Z)-3-(2-hydroxyethyl)-5-[[1-(2-pyridyl)pyrazol-4-yl]methylene]-2-thioxo-thiazolidin-4-one] | 82.94 ± 1.10%
O=C1/C(=C/c2cnn(-c3cccnc3)c2)SC(=S)N1CCO [Example 1-36, (5Z)-3-(2-hydroxyethyl)-5-[[1-(3-pyridyl)pyrazol-4-yl]methylene]-2-thioxo-thiazolidin-4-one] | 80.88 ± 1.10%
Cc1nn(-c2ccccc2)c(C)c1/C=C1\SC(=S)NC1=O [Example 1-38, (5Z)-5-[(3,5-dimethyl-1-phenyl-pyrazol-4-yl)methylene]-2-thioxo-thiazolidin-4-one] | 75.78 ± 2.60%
O=C1NC(=O)/C(=C/c2cnn(-c3ccccc3F)c2)S1 [Example 1-40, (5Z)-5-[[1-(2-fluorophenyl)pyrazol-4-yl]methylene]thiazolidine-2,4-dione] | 41.03 ± 0.21%
O=C1NC(=O)/C(=C/c2cnn(-c3cccc(F)c3)c2)S1 [Example 1-41, (5Z)-5-[[1-(3-fluorophenyl)pyrazol-4-yl]methylene]thiazolidine-2,4-dione] | 49.37 ± 7.34%
O=C1NC(=O)/C(=C/c2cnn(-c3ccc(F)cc3)c2)S1 [Example 1-42, (5Z)-5-[[1-(4-fluorophenyl)pyrazol-4-yl]methylene]thiazolidine-2,4-dione] | 73.81 ± 2.77%
O=C1NC(=O)/C(=C/c2cnn(-c3ccccc3Cl)c2)S1 [Example 1-43, (5Z)-5-[[1-(2-chlorophenyl)pyrazol-4-yl]methylene]thiazolidine-2,4-dione] | 52.34 ± 3.97%
O=C1NC(=O)/C(=C/c2cnn(-c3cccc(Cl)c3)c2)S1 [Example 1-44, (5Z)-5-[[1-(3-chlorophenyl)pyrazol-4-yl]methylene]thiazolidine-2,4-dione] | 50.76 ± 5.28%
O=C1NC(=O)/C(=C/c2cnn(-c3ccc(Cl)cc3)c2)S1 [Example 1-45, (5Z)-5-[[1-(4-chlorophenyl)pyrazol-4-yl]methylene]thiazolidine-2,4-dione] | 64.18 ± 3.13%
Cc1ccc(-n2cc(/C=C3\SC(=O)NC3=O)cn2)cc1 [Example 1-46, (5Z)-5-[[1-(p-tolyl)pyrazol-4-yl]methylene]thiazolidine-2,4-dione] | 74.39 ± 0.62%
CC(C)c1ccc(-n2cc(/C=C3\SC(=O)NC3=O)cn2)cc1 [Example 1-47, (5Z)-5-[[1-(4-isopropylphenyl)pyrazol-4-yl]methylene]thiazolidine-2,4-dione] | 74.36 ± 1.23%
CCCCc1ccc(-n2cc(/C=C3\SC(=O)NC3=O)cn2)cc1 [Example 1-48, (5Z)-5-[[1-(4-butylphenyl)pyrazol-4-yl]methylene]thiazolidine-2,4-dione] | 69.53 ± 2.04%
Cc1ccc(-n2cc(/C=C3\SC(=O)NC3=O)cn2)cc1C [Example 1-49, (5Z)-5-[[1-(3,4-dimethylphenyl)pyrazol-4-yl]methylene]thiazolidine-2,4-dione] | 68.36 ± 2.99%
COc1ccccc1-n1cc(/C=C2\SC(=O)NC2=O)cn1 [Example 1-50, (5Z)-5-[[1-(2-methoxyphenyl)pyrazol-4-yl]methylene]thiazolidine-2,4-dione] | 38.93 ± 16.04%
O=C1NC(=O)/C(=C/c2cnn(-c3ccc4ccccc4c3)c2)S1 [Example 1-51, (5Z)-5-[[1-(2-naphthyl)pyrazol-4-yl]methylene]thiazolidine-2,4-dione] | 53.08 ± 1.81%
Cc1nn(-c2ccccc2)cc1/C=C1\SC(=O)NC1=O [Example 1-53, (5Z)-5-[(3-methyl-1-phenyl-pyrazol-4-yl)methylene]thiazolidine-2,4-dione] | 71.70 ± 1.70%
Cc1nn(-c2ccccc2)c(C)c1/C=C1\SC(=O)NC1=O [Example 1-54, (5Z)-5-[(3,5-dimethyl-1-phenyl-pyrazol-4-yl]methylene]thiazolidine-2,4-dione] | 71.17 ± 4.46%
